# Source: patent US9765092B2, “Tricyclic piperidine compounds” (ACTELION PHARMACEUTICALS LTD, priority 2013, dated 2017)
# Target: human TPH1 (Homo sapiens (Human), UniProt P17752)
# Assay: Biochemical in vitro assay using fluorescence readout (TPH1 inhibition)
# Conditions: full length human TPH1, 40 μM L-tryptophan, 15° C., 60 minutes, fluorescence at 540 nm; mean if determined several times
# human TPH1, sequence (P17752 whole entry): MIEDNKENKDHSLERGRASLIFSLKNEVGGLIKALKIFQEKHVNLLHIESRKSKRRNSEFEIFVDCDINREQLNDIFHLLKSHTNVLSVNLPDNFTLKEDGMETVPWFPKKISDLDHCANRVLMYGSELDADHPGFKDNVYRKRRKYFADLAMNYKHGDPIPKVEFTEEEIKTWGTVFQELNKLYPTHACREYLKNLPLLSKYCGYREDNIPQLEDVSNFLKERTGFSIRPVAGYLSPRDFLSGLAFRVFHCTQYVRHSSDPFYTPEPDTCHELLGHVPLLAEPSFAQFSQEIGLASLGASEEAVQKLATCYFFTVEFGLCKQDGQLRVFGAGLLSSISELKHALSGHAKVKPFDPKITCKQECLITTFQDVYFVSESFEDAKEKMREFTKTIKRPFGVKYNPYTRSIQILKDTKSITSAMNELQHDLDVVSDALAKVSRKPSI
row,Molecule,IC50
1,"Cc1nn2c3c(nc2s1)CCN(C(=O)COc1ccc(NS(C)(=O)=O)nc1Cl)C3c1ccc(OCCO)cc1F (stereo not shown) [Example 1.84.2, N-(6-Chloro-5-(2-(5-(2-fluoro-4-(2-hydroxyethoxy)phenyl)-2-methyl-7,8-dihydro-[1,3,4]thiadiazolo[2′,3′:2,3]imidazo[4,5-c]pyridin-6(5H)-yl)-2-oxoethoxy)pyridin-2-yl)methanesulfonamide]",0.016 µM
2,"Cc1nn2c3c(nc2s1)CCN(C(=O)COc1ccc(N2CC(F)(F)C2)nc1Cl)C3c1cc(C(=O)N(C)C)cs1 (stereo not shown) [Example 1.9.2, 5-(6-(2-((2-Chloro-6-(3,3-difluoroazetidin-1-yl)pyridin-3-yl)oxy)acetyl)-2-methyl-5,6,7,8-tetrahydro-[1,3,4]thiadiazolo[2′,3′:2,3]imidazo[4,5-c]pyridin-5-yl)-N,N-dimethylthiophene-3-carboxamide]",0.032 µM
3,"Cc1nn2c3c(nc2s1)CCN(C(=O)COc1ccc(N2CCOCC2)nc1Cl)C3c1nc(C(N)=O)cs1 (stereo not shown) [Example 1.48.1, 2-(6-(2-((2-Chloro-6-morpholinopyridin-3-yl)oxy)acetyl)-2-methyl-5,6,7,8-tetrahydro-[1,3,4]thiadiazolo[2′,3′:2,3]imidazo[4,5-c]pyridin-5-yl)thiazole-4-carboxamide]",0.005 µM

# Same assay, conditions: human TPH1, fluorescence readout
row,Molecule,IC50
1,"O=C(COc1ccc2ccncc2c1)N1CCc2nc3sccn3c2C1c1nc2ccccc2s1 (stereo not shown) [Example 6.12.9, 1-(5-(benzo[d]thiazol-2-yl)-7,8-dihydrothiazolo-[2′,3′:2,3]imidazo[4,5-c]pyridin-6(5H)-yl)-2-(isoquinolin-7-yloxy)ethanone]",0.012 µM
2,"COc1ccc(C2c3c(nc4sc(C)nn34)CCN2C(=O)COc2ccc(C(=O)NC3CC3)nc2Cl)c(F)c1 (stereo not shown) [Example 1.3.3, 6-chloro-N-cyclopropyl-5-(2-(5-(2-fluoro-4-methoxyphenyl)-2-methyl-7,8-dihydro-[1,3,4]thiadiazolo[2′,3′:2,3]imidazo[4,5-c]pyridin-6(5H)-yl)-2-oxoethoxy)picolinamide]",0.01 µM
3,"Cc1nn2c3c(nc2s1)CCN(C(=O)COc1ccc(N2CCOCC2)nc1Cl)C3c1scnc1C (stereo not shown) [Example 1.32.1, 2-((2-chloro-6-morpholinopyridin-3-yl)oxy)-1-(2-methyl-5-(4-methylthiazol-5-yl)-7,8-dihydro-[1,3,4]thiadiazolo [2′,3′:2,3]imidazo[4,5-c]pyridin-6(5H)-yl)ethanone]",0.002 µM
4,"Cc1nn2c3c(nc2s1)CCN(C(=O)COc1ccc(S(N)(=O)=O)cc1C)C3c1sccc1F (stereo not shown) [Example 1.23.2, 4-(2-(5-(3-fluorothiophen-2-yl)-2-methyl-7,8-dihydro-[1,3,4]thiadiazolo[2′,3′:2,3]imidazo[4,5-c]pyridin-6(5H)-yl)-2-oxoethoxy)-3-methylbenzenesulfonamide]",0.089 µM
5,"Cc1nn2c3c(nc2s1)CCN(C(=O)COc1ccc(N(C)C)nc1Cl)C3c1cnc(OC(F)F)cc1C (stereo not shown) [Example 1.15.1, 2-((2-chloro-6-(dimethylamino)pyridin-3-yl)oxy)-1-(5-(6-(difluoromethoxy)-4-methylpyridin-3-yl)-2-methyl-7,8-dihydro-[1,3,4]thiadiazolo[2′,3′:2,3]imidazo[4,5-c]pyridin-6(5H)-yl)ethanone]",0.058 µM
6,"Cc1nn2c3c(nc2s1)CCN(C(=O)COc1ccc(-c2ncco2)nc1Cl)C3c1ccc(Cl)cc1F (stereo not shown) [Example 1.4.47, 1-(5-(4-chloro-2-fluorophenyl)-2-methyl-7,8-dihydro-[1,3,4]thiadiazolo[2′,3′:2,3]imidazo[4,5-c]pyridin-6(5H)-yl)-2-((2-chloro-6-(oxazol-2-yl)pyridin-3-yl)oxy)etha-none]",0.01 µM
7,"CNC(=O)c1cc(F)c(C2c3c(nc4sc(C)nn34)CCN2C(=O)COc2cc(F)cnc2Cl)s1 (stereo not shown) [Example 1.25.9, 5-(6-(2-((2-chloro-5-fluoropyridin-3-yl)oxy)acetyl)-2-methyl-5,6,7,8-tetrahydro-[1,3,4]thiadiazolo[2′,3′:2,3]imidazo[4,5-c]pyridin-5-yl)-4-fluoro-N-methylthiophene-2-carboxamide]",0.047 µM
8,"CCc1nc(N2CCCS2(=O)=O)ccc1OCC(=O)N1CCc2nc3sc(CF)nn3c2C1c1sc(C)nc1C (stereo not shown) [Example 7.4.3, 1-(5-(2,4-dimethylthiazol-5-yl)-2-(fluoromethyl)-7,8-dihydro-[1,3,4]thiadiazolo[2′,3′:2,3]imidazo[4,5-c]pyridin-6(5H)-yl)-2-((6-(1,1-dioxidoisothiazolidin-2-yl)-2-ethylpyridin-3-yl)oxy)ethanone]",0.008 µM
9,"COc1nc(NS(C)(=O)=O)ccc1OCC(=O)N1CCc2nc3sc(C)nn3c2[C@@H]1c1ncc(C)cc1F [Example 1.31.20, (R)-N-(5-(2-(5-(3-fluoro-5-methylpyridin-2-yl)-2-methyl-7,8-dihydro-[1,3,4]thiadiazolo[2′,3′:2,3]imidazo[4,5-c]pyridin-6(5H)-yl)-2-oxoethoxy)-6-methoxypyridin-2-yl)methanesulfonamide]",0.077 µM
10,"Cc1nn2c3c(nc2s1)CCN(C(=O)COc1ccc(N2CCOCC2)cc1Cl)C3c1cnc(C2CC2)nc1C (stereo not shown) [Example 1.10.4, 2-(2-chloro-4-morpholinophenoxy)-1-(5-(2-cyclopropyl-4-methylpyrimidin-5-yl)-2-methyl-7,8-dihydro-[1,3,4]thiadiazolo [2′,3′:2,3]imidazo[4,5-c]pyridin-6(5H)-yl)ethanone]",0.018 µM
11,"CCc1nc(C)ccc1OCC(=O)N1CCc2nc3sc(C)nn3c2C1c1ccc(C2CC2)cc1F (stereo not shown) [Example 1.6.8, 1-(5-(4-cyclopropyl-2-fluorophenyl)-2-methyl-7,8-dihydro-[1,3,4]thiadiazolo[2′,3′:2,3]imidazo[4,5-c]pyridin-6(5H)-yl)-2-((2-ethyl-6-methylpyridin-3-yl)oxy)ethanone]",0.023 µM
12,"CCc1nc(C(=O)NC2CC2)ccc1OCC(=O)N1CCc2nc3sc(C(F)F)nn3c2C1c1sc(C)nc1C (stereo not shown) [Example 8.3.1, N-cyclopropyl-5-(2-(2-(difluoromethyl)-5-(2,4-dimethylthiazol-5-yl)-7,8-dihydro-[1,3,4]thiadiazolo[2′,3′:2,3]imidazo[4,5-c]pyridin-6(5H)-yl)-2-oxoethoxy)-6-ethylpicolinamide]",0.011 µM
13,"Cc1cnc(C2c3c(nc4sc(C)nn34)CCN2C(=O)COc2ccc(NS(C)(=O)=O)nc2Cl)c(F)c1 (stereo not shown) [Example 1.31.8, N-(6-chloro-5-(2-(5-(3-fluoro-5-methylpyridin-2-yl)-2-methyl-7,8-dihydro-[1,3,4]thiadiazolo[2′,3′:2,3]imidazo[4,5-c]pyridin-6(5H)-yl)-2-oxoethoxy)pyridin-2-yl)methanesulfonamide]",0.009 µM
14,"Cc1nn2c3c(nc2s1)CCN(C(=O)COc1ccc(C(=O)N(C)C)nc1Cl)C3c1ccc(OC(F)F)cc1F (stereo not shown) [Example 1.54.1, 6-chloro-5-(2-(5-(4-(difluoromethoxy)-2-fluorophenyl)-2-methyl-7,8-dihydro-[1,3,4]thiadiazolo[2′,3′:2,3]imidazo[4,5-c]pyridin-6(5H)-yl)-2-oxoethoxy)-N,N-dimethylpicolinamide]",0.014 µM
15,"Cc1nn2c3c(nc2s1)CCN(C(=O)COc1ccc(C(=O)N(C)C)nc1Cl)C3c1cncs1 (stereo not shown) [Example 1.39.2, 6-chloro-N,N-dimethyl-5-(2-(2-methyl-5-(thiazol-5-yl)-7,8-dihydro-[1,3,4]thiadiazolo[2′,3′:2,3]imidazo[4,5-c]pyridin-6(5H)-yl)-2-oxoethoxy)picolinamide]",0.069 µM
16,"CCc1ncccc1OCC(=O)N1CCc2nc3sccn3c2C1c1ccc(C(F)F)cc1F (stereo not shown) [Example 6.16.1, 1-(5-(4-(difluoromethyl)-2-fluorophenyl)-7,8-dihydro-thiazolo[2′,3′:2,3]imidazo[4,5-c]pyridin-6(5H)-yl)-2-((2-ethylpyridin-3-yl)oxy)ethanone]",0.014 µM
17,"CCc1nc(C)ccc1OCC(=O)N1CCc2nc3sccn3c2C1c1ccc(C(F)F)cc1F (stereo not shown) [Example 6.16.2, 1-(5-(4-(difluoromethyl)-2-fluorophenyl)-7,8-dihydro-thiazolo[2′,3′:2,3]imidazo[4,5-c]pyridin-6(5H)-yl)-2-((2-ethyl-6-methylpyridin-3-yl)oxy)ethanone]",0.008 µM
18,"Cc1nn2c3c(nc2s1)CCN(C(=O)COc1ccc(C(F)(F)F)nc1Cl)C3c1scnc1C (stereo not shown) [Example 1.32.4, 2-((2-chloro-6-(trifluoromethyl)pyridin-3-yl)oxy)-1-(2-methyl-5-(4-methylthiazol-5-yl)-7,8-dihydro-[1,3,4]thiadiazolo [2′,3′:2,3]imidazo[4,5-c]pyridin-6(5H)-yl)ethanone]",0.021 µM
19,"CCOC(=O)c1csc(C2c3c(nc4sc(C)nn34)CCN2C(=O)COc2ccc(N3CCOCC3)nc2Cl)n1 (stereo not shown) [Example 1.27.1, ethyl 2-(6-(2-((2-chloro-6-morpholinopyridin-3-yl)oxy)acetyl)-2-methyl-5,6,7,8-tetrahydro-[1,3,4]thiadiazolo[2′,3′:2,3]imidazo[4,5-c]pyridin-5-yl)thiazole-4-carboxylate]",0.007 µM
20,"5-(2-(5-(4-(aminomethyl)-2-fluorophenyl)-2-methyl-7,8-dihydro-[1,3,4]thiadiazolo[2′,3′:2,3]imidazo[4,5-c]pyridin-6(5H)-yl)-2-oxoethoxy)-6-chloro-N-cyclopropylpicolinamide [Example 1.78.2]",0.018 µM
21,"COC(=O)c1ccc(C2c3c(nc4sc(C)nn34)CCN2C(=O)COc2ccc(N3CCOCC3)nc2Cl)o1 (stereo not shown) [Example 1.26.1, Methyl 5-(6-(2-((2-chloro-6-morpholinopyridin-3-yl)oxy)acetyl)-2-methyl-5,6,7,8-tetrahydro-[1,3,4]thiadiazolo [2′,3′:2,3]imidazo[4,5-c]pyridin-5-yl)furan-2-carboxylate]",0.01 µM
22,"Cc1nn2c3c(nc2s1)CCN(C(=O)COc1ccc(S(N)(=O)=O)cc1C)C3c1ccc(C2CC2)cc1F (stereo not shown) [Example 1.6.14, 4-(2-(5-(4-cyclopropyl-2-fluorophenyl)-2-methyl-7,8-dihydro-[1,3,4]thiadiazolo[2′,3′:2,3]imidazo[4,5-c]pyridin-6(5H)-yl)-2-oxoethoxy)-3-methylbenzenesulfonamide]",0.045 µM
